Laboratory results published in US20220000403A1, “NEUROT[…] DETECTION SYSTEM AND METHOD OF DETECTING A NEUROT[…]” (Ocumove ApS, priority 2018, published 2022).

Assays:
Format in all cases: in vivo, human
patient with ADHD [1] = experiment: Frequency analysis (FFT) of closed-eye movement signal before/after medication, Example 5; conditions: one tablet of 10 mg
Experimental: (§1) Strain gauge sensors (SleepSense Limb Movement Sensors) from SleepSense were used as eye movement sensors. These where connected to a Digital Brain Electric Activity Mapping KT88 EEG apparatus as a recording and frequency analysis arrangement.
(§2) The subjects were instructed to keep their eyes closed, but to refrain from falling asleep.
(§3) The signal from the sensors where filtered by one of two different filters; a 2.5 Hz low pass filter with 24 dB reduction.
(§4) A signal was recorded over a period of 5 minutes. 1 minute of signal is illustrated in FIG. 3.
Using eye movement signals recorded as explained in example 1, frequency analysis was performed to determine a frequency distribution. However, only a 10 seconds period corresponding to the first 10 seconds of the latency time of example 2 was used. A Fast Fourier Transformation (FFT) based algorithm was used, with a 100 mHz resolution.
Using eye movement signals recorded as explained in example 1, frequency analysis was performed to determine a frequency distribution. A Fast Fourier Transformation (FFT) based algorithm was used, with a 100 mHz resolution.
In example 5, signals were recorded on a patient with ADHD.
On FIG. 6A is the result when the patient was in an initial, unmedicated state. […]

patient with ADHD [2] = experiment: Number of large eye movements before/after medication, Example 5
Experimental: as §1, §2, §3, §4
A large eye movement number was established as the number of times the signals exceeded 50 μV, or moved below −50 μV. This signifies the number of large eye movements.
On FIG. 6A is the result when the patient was in an initial, unmedicated state. A second measurement was made after administering suitable ADHD-medication to the patient (one tablet of 10 mg of methylphenidate), this is shown in FIG. 6B.
Furthermore, the number of eye movements was analyzed as in example 1, before and after medication.

[3] = system: subjects with an AHDH or ADD diagnosis; experiment: Maximum FFT amplitude before/after startup of methylphenidate treatment (Example 7.3); conditions: for decrease in eye activity (RC): no positive effect of the treatment
Experimental: A number of sample signals were recorded. Each sample was recorded over a period of 360 seconds. Only the middle 240 seconds are used, as the first 60 seconds and the last 60 second of the signal is discarded to avoid introducing artifacts related to the startup and termination of the test and the subject getting used to the eye sensors etc.
The signals were subjected to frequency analysis by FFT with 100 mHz solution.
Maximum amplitude of the frequency distribution (i.e. max FFT amplitude) is identified.
20 subjects with an AHDH or ADD diagnosis were evaluated with respect to effect of startup of methylphenidate treatment. A sample was recorded for each subject in accordance with example 7.2, and a maximum FFT amplitude was outputted from the frequency analysis arrangement (maximum FFT amplitude before, MAB). Thereafter, a startup dose of methylphenidate was prescribed for each subject. After ingestion, a further sample was recorded for each subject, and a maximum FFT amplitude was outputted from the frequency analysis arrangement (maximum FFT amplitude after, MAA).

subjects with ADHD = experiment: Eye movement signal parameters before/after methylphenidate, ADHD subjects (Example 6.6)
Experimental: as §1, §2, §3, §4
(§5) Eye movement signals were recorded using the methods described in example 1.
Data from 7 subjects with ADHD examined before treatment. Hereafter methylphenidate was administered, and after a subjective assessment of an effect thereof, the measurement was repeated. The sensors were in place during the entire test.

subjects with ADD = experiment: Eye movement signal parameters before/after methylphenidate, ADD subjects (Example 6.6)
Experimental: as §1, §2, §3, §4, §5
In 3 out of 4 cases, an increase in the amplitude and a decrease in the average frequency was observed.

COC(=O)C(c1ccccc1)C1CCCCN1 (centres unmarked) [methylphenidate]
maximum value of frequency components after medication, reduction to (patient with ADHD [1]; 10 s period, FIG. 6C vs 6D): ~20%
frequency content after medication, reduction to (patient with ADHD [1]; 5 min signal, FIG. 6A vs 6B): ~50%
Number of eye movements after medication (patient with ADHD [2]; 1-60 s, signal exceeding +/− 50 μV, before 54): 60
Number of eye movements after medication (patient with ADHD [2]; 61-120 s, before 15): 0
Number of eye movements after medication (patient with ADHD [2]; 121-180 s, before 23): 2
Number of eye movements after medication (patient with ADHD [2]; 181-240 s, before 16): 1
Number of eye movements after medication (patient with ADHD [2]; 241-300 s, before 14): 2
Eff. M.: Evaluation of effect of methylphenidate ([3]; subject 143 ADHD): Good
RC: relative change in FFT amplitude ([3]; subject 143 ADHD): −53
MAA: Maximum FFT amplitude after ([3]; subject 143 ADHD, MAB 14.3): 6.7
Eff. M.: Evaluation of effect of methylphenidate ([3]; subject 146): No
RC: relative change in FFT amplitude ([3]; subject 146): 100
MAA: Maximum FFT amplitude after ([3]; subject 146, MAB 2.8): 5.6
Eff. M.: Evaluation of effect of methylphenidate ([3]; subject 148 ADHD): Good
RC: relative change in FFT amplitude ([3]; subject 148 ADHD): −60
MAA: Maximum FFT amplitude after ([3]; subject 148 ADHD, MAB 8.7): 3.5
Eff. M.: Evaluation of effect of methylphenidate ([3]; subject 152): Good
RC: relative change in FFT amplitude ([3]; subject 152): −56
MAA: Maximum FFT amplitude after ([3]; subject 152, MAB 4.58): 2.0
Eff. M.: Evaluation of effect of methylphenidate ([3]; subject 155): No
RC: relative change in FFT amplitude ([3]; subject 155): 17
MAA: Maximum FFT amplitude after ([3]; subject 155, MAB 3.6): 4.2
decrease in eye activity (RC) ([3]; subject 177): below 10%
Eff. M.: Evaluation of effect of methylphenidate ([3]; subject 177 ADHD): No
RC: relative change in FFT amplitude ([3]; subject 177 ADHD): −7
MAA: Maximum FFT amplitude after ([3]; subject 177 ADHD, MAB 26.7): 24.8
Eff. M.: Evaluation of effect of methylphenidate ([3]; subject 179 ADHD): Good
RC: relative change in FFT amplitude ([3]; subject 179 ADHD): −65
MAA: Maximum FFT amplitude after ([3]; subject 179 ADHD, MAB 8.9): 3.1
Eff. M.: Evaluation of effect of methylphenidate ([3]; subject 184): Good
RC: relative change in FFT amplitude ([3]; subject 184): 65
MAA: Maximum FFT amplitude after ([3]; subject 184, MAB 4.8): 7.9
Eff. M.: Evaluation of effect of methylphenidate ([3]; subject 187 ADHD): Good
RC: relative change in FFT amplitude ([3]; subject 187 ADHD): 19
MAA: Maximum FFT amplitude after ([3]; subject 187 ADHD, MAB 9.0): 10.7
Eff. M.: Evaluation of effect of methylphenidate ([3]; subject 189): Good
RC: relative change in FFT amplitude ([3]; subject 189): −39
MAA: Maximum FFT amplitude after ([3]; subject 189, MAB 9.0): 5.5
Eff. M.: Evaluation of effect of methylphenidate ([3]; subject 192 ADHD): Good
RC: relative change in FFT amplitude ([3]; subject 192 ADHD): −66
MAA: Maximum FFT amplitude after ([3]; subject 192 ADHD, MAB 21.4): 7.3
Eff. M.: Evaluation of effect of methylphenidate ([3]; subject 197): Good
RC: relative change in FFT amplitude ([3]; subject 197): −56
MAA: Maximum FFT amplitude after ([3]; subject 197, MAB 14.2): 6.2
Eff. M.: Evaluation of effect of methylphenidate ([3]; subject 202 ADHD): No
RC: relative change in FFT amplitude ([3]; subject 202 ADHD): 33
MAA: Maximum FFT amplitude after ([3]; subject 202 ADHD, MAB 34.4): 45.9
Eff. M.: Evaluation of effect of methylphenidate ([3]; subject 204 ADHD): Good
RC: relative change in FFT amplitude ([3]; subject 204 ADHD): −66
MAA: Maximum FFT amplitude after ([3]; subject 204 ADHD, MAB 6.2): 2.1
Eff. M.: Evaluation of effect of methylphenidate ([3]; subject 210 ADHD): No
RC: relative change in FFT amplitude ([3]; subject 210 ADHD): 14
MAA: Maximum FFT amplitude after ([3]; subject 210 ADHD, MAB 7.6): 8.7
Eff. M.: Evaluation of effect of methylphenidate ([3]; subject 212): No
RC: relative change in FFT amplitude ([3]; subject 212): 27
MAA: Maximum FFT amplitude after ([3]; subject 212, MAB 13.1): 16.7
Eff. M.: Evaluation of effect of methylphenidate ([3]; subject 248 ADHD): No
RC: relative change in FFT amplitude ([3]; subject 248 ADHD): 14
MAA: Maximum FFT amplitude after ([3]; subject 248 ADHD, MAB 15.9): 18.2
Eff. M.: Evaluation of effect of methylphenidate ([3]; subject 250): Good
RC: relative change in FFT amplitude ([3]; subject 250): −24
MAA: Maximum FFT amplitude after ([3]; subject 250, MAB 15.8): 12.0
Eff. M.: Evaluation of effect of methylphenidate ([3]; subject 255): Good
RC: relative change in FFT amplitude ([3]; subject 255): −30
MAA: Maximum FFT amplitude after ([3]; subject 255, MAB 22.9): 16.0
Eff. M.: Evaluation of effect of methylphenidate ([3]; subject 258): No
RC: relative change in FFT amplitude ([3]; subject 258): −2
MAA: Maximum FFT amplitude after ([3]; subject 258, MAB 11.2): 11.0
decrease in eye activity (RC) ([3]; subject 258): below 10%
cases with a fall in the amplitude and an increase in the average frequency (subjects with ADHD; of 7 subjects with ADHD, after methylphenidate): 6 cases
DATA B Av Fq (subjects with ADHD; subject 143/144, after treatment, before 3.241667): 4.858
DATA B FFT Amplitude (subjects with ADHD; subject 143/144, after treatment, before 15): 7
DATA B Av Amp (subjects with ADHD; subject 143/144, after treatment, before −0.37474): 0.001138
DATA B Av Fq (subjects with ADHD; subject 167/168, after treatment, before 4.511667): 4.647
DATA B FFT Amplitude (subjects with ADHD; subject 167/168, after treatment, before 10): 9.6
DATA B Av Amp (subjects with ADHD; subject 167/168, after treatment, before −0.199017): 0.04479
DATA B Av Amp (subjects with ADHD; subject 177/178, after treatment, before 0.578600): 0.5056
DATA B Av Fq (subjects with ADHD; subject 177/178, after treatment, before 2.05333): 2.23
DATA B FFT Amplitude (subjects with ADHD; subject 177/178, after treatment, before 28): 26
DATA B Av Amp (subjects with ADHD; subject 179/180, after treatment, before 0.002030): 0.04999
DATA B Av Fq (subjects with ADHD; subject 179/180, after treatment, before 3.07500): 3.695
DATA B FFT Amplitude (subjects with ADHD; subject 179/180, after treatment, before 9.5): 4.1
DATA B Av Amp (subjects with ADHD; subject 187/188, after treatment, before 0.061771): 0.09263
DATA B Av Fq (subjects with ADHD; subject 187/188, after treatment, before 2.73667): 2.553
DATA B FFT Amplitude (subjects with ADHD; subject 187/188, after treatment, before 9.5): 12
DATA B Av Amp (subjects with ADHD; subject 189/190, after treatment, before 0.012759): 0.007571
DATA B Av Fq (subjects with ADHD; subject 189/190, after treatment, before 3.79500): 3.947
DATA B FFT Amplitude (subjects with ADHD; subject 189/190, after treatment, before 8.5): 5.0
DATA B Av Amp (subjects with ADHD; subject 192/193, after treatment, before 0.046206): 0.000667
DATA B Av Fq (subjects with ADHD; subject 192/193, after treatment, before 2.425000): 4.838
DATA B FFT Amplitude (subjects with ADHD; subject 192/193, after treatment, before 22): 8.0
cases with an increase in the amplitude and a decrease in the average frequency (subjects with ADD; out of 4 ADD subjects treated with methylphenidate): 3 cases
DATA B Av Amp (subjects with ADD; subject 146/147, after treatment, before 0.031965): 0.03275
DATA B FFT Amplitude (subjects with ADD; subject 146/147, after treatment, before 3): 6.1
DATA B Av Fq (subjects with ADD; subject 146/147, after treatment, before 5.07667): 4.083
DATA B Av Amp (subjects with ADD; subject 152/153, after treatment, before 0.061080): 0.04852
DATA B Av Fq (subjects with ADD; subject 152/153, after treatment, before 3.62833): 4.618
DATA B FFT Amplitude (subjects with ADD; subject 152/153, after treatment, before 5.5): 4.2
DATA B Av Amp (subjects with ADD; subject 170/171, after treatment, before 0.030927): 0.02591
DATA B FFT Amplitude (subjects with ADD; subject 170/171, after treatment, before 2.5): 2.6
DATA B Av Fq (subjects with ADD; subject 170/171, after treatment, before 5.80555): 5.523
DATA B Av Amp (subjects with ADD; subject 184/185, after treatment, before 0.054841): 0.05472
DATA B Av Fq (subjects with ADD; subject 184/185, after treatment, before 4.42333): 3.64
DATA B FFT Amplitude (subjects with ADD; subject 184/185, after treatment, before 5.0): 8.0
